Results reported in article PMC11170954, “Effect of Peptide–Polymer Host–Guest Electrostatic Interactions on Self-Assembling Peptide Hydrogels Structural and Mechanical Properties and Polymer Diffusivity” (Biomacromolecules, 2024).
Ends that are not written are not given here.

Key:
[1] = Peptide titration with NaOH (pKa-like transitions, net charge assignment); format: physicochemical; conditions: stepwise NaOH addition to peptide solution in HPLC grade water; for first pKa-like transition (deprotonation of glutamic acid side groups), pH: start pH ∼3.2, transition observed up to this pH
Method: Peptide titration experiments were performed by adding 0.1 or 0.5 M NaOH solutions in 1–2 μL steps to a 1 mL HPLC-grade water peptide solution with a 2 mg mL^–1 starting concentration. After each NaOH addition, the samples were vigorously agitated using a vortex to ensure homogeneous mixing and the pH was measured using a Fisherbrand Hydrus 300 benchtop pH meter.
As stated in the introduction, these two peptides were designed to be “symmetrical” in relation to the position and distribution of their anionic (COOH/COO^–) and cationic (NH3^+/NH2) groups and to carry an overall theoretical net charge modulus of 1 at pH 7. As shown in our previous work, self-assembly can induce a shift in pKa of these ionic groups depending on the surrounding environment created.[26],[38] To investigate the effect of self-assembly on pKa of these groups, titration experiments were performed on each peptide at a […] concentration. The resulting curves are presented in Figure 2A, B. Both peptides were purchased as HCl salts; therefore, when dissolved in water low pH, ∼ 3.2, solutions were obtained. Upon addition of NaOH a first pKa-like transition was observed up to pH 5 for K(FEFK)2 and pH 4.5 for E(FKFE)2. This first transition is associated in both cases with deprotonation of the glutamic acid side groups.

[2] = system: immortalized human bone marrow-derived MSC line (Y201); format: cell-based
Method: (§1) 3T3 mouse fibroblast and an immortalized human bone marrow-derived MSC line (Y201)[37] were used to assess the cytocompatibility of the hydrogels. The 3T3 cells were cultured in Dulbecco’s Modified Eagle’s Medium (DMEM) (Gibco), 1% penicillin–streptomycin (Sigma–Aldrich, P0781), and 10% fetal bovine serum (Sigma–Aldrich, F9665), while the MSCs were cultured in Minimum Essential Medium Eagle (αMEM) (Sigma-Aldrich, M4526), 10% fetal bovine serum (Sigma–Aldrich, F7524), 1% antibiotic/antimycotic solution (Sigma–Aldrich, A5955), 1% GlutaMAX (Life Technologies, 35050038), and 0.01% L-ascorbic acid 2-phosphate (Sigma–Aldrich, A8960). Cells were harvested when reaching 70–80% confluency. For cell counting, the cell suspension was mixed (1:1 ratio) with a 0.4% trypan blue solution (Bio-Rad) and cell counted using an automated cell counter (Cellometer Auto 1000, Nexcelom).
(§2) Hydrogel samples were removed from the fridge (4 °C) and prewarmed to 37 °C. Cells were encapsulated into the hydrogel by gentle pipetting to ensure an evenly mixed sample, at a final density of 1 × 10^6 cells mL^–1. 100 μL of cell-laden hydrogel was then dispensed into ThinCert inserts (Greiner Bio-One) in 24-well plates and cell culture medium (1 mL) was added into each well/insert. 250 μL was added to the top of the hydrogel surface in the inset, and 750 μL was added to the well. Cell culture plates were then incubated at 37 °C with 5% of the CO2. The growth medium was changed every 20 min during the first hour of the experiment and subsequently every 2 days.
To assess cell viability in the hydrogels, the live/dead assay (Thermo Fisher Scientific) was used. The cell culture medium was removed, and the samples were washed 3 times with DPBS. A working solution of staining reagent was prepared in DPBS (4 μM ethidium homodimer I and 2 μM calcein-AM) and 100 μL was added to the top of the hydrogel surfaces (in the insets) and a further 600 μL into the wells. […]

[3] = Swelling / stability of hydrogels in excess water; format: physicochemical; conditions: 12 mg mL^–1 peptide, 0.8 mg mL^–1 polymer where loaded, 1 mL gel + 3 mL HPLC grade water
Method: Hydrogels were prepared as described earlier at 12 mg mL^–1, and 1 mL was transferred into 5 mL cylindrical glass vials. Vials were gently tapped on the bench to eliminate any bubbles and obtained flat surfaces, and the height of the hydrogels was measured (day 0). Three milliliters of HPLC-grade water was then added on the top of the hydrogels. After being stored the samples for 10 days at 37 °C, the vials were inverted, and the height of the hydrogels was measured once again (day 10). The swelling ratio (Q) was defined as (H1 – H0)/H0, where H0 is the height of the hydrogel at day 0 and H1 is the height of the hydrogel at day 10.

3T3 mouse fibroblast = test: 3D cell culture, PicoGreen assay; format: cell-based; conditions: 3T3 fibroblasts, 3D culture, 14 days; hydrogel prepared at 20 mg mL^–1
Method: as §1, §2
(§3) To quantify the number of cells present in the hydrogels, the amount of cells’ dsDNA was quantified via PicoGreen assay (Invitrogen, Thermo Fisher Scientific). […] When ready for analysis, the samples were removed from the −20 °C freezer, thawed at room temperature, and agitated until homogeneous. […] The assay plate was incubated at room temperature in the dark for 5 min then measured using a plate reader (CLARIOstar), using fluorescence detection with excitation at 480–512 nm and emission at 520 nm. […]

[4] = system: immortalized human bone marrow-derived MSC line (Y201); test: 3D cell culture, PicoGreen assay; format: cell-based; conditions: MSCs, 3D culture, over 14 days
Method: as §1, §2, §3

[5] = Small-angle X-ray scattering of hydrogels; format: physicochemical; conditions: for fibers cross-section radius of gyration, Rσ: SAXS Guinier fit, hydrogels 6 mg mL^–1, pH 7; for estimated fiber diameter, df: from Rσ assuming cylindrical geometry
Method: SAXS experiments were performed on beamline I22 at the diamond light source (DLS) synchrotron (Didcot, UK).[31] The energy of the beam was 12.4 keV, corresponding to an X-ray wavelength of 0.1 nm. Quartz capillaries (1.5 mm outer diameter and 0.01 mm wall thickness) from Capillary Tube Supplies Ltd. (Bodmin, UK) were used as sample holders. The samples were prepared as described earlier and injected into the capillaries using a syringe. The sample-to-detector distance was fixed to 5.77 m, corresponding to an accessible momentum transfer vector range of 0.1 nm^–1 < q = (4π/λ) sin(θ/2) < 3.0 nm^–1, where θ is the scattering angle and λ is the wavelength of the incident photons. Calibration of the SAXS detector (Pilatus P3–2M, Dectris, Switzerland) was performed using silver behenate powder, and data were collected as 10 × 100 ms frames. Data were reduced using the Dawn software suite available from DLS.[32] The 2D isotropic scattering patterns were corrected for the detector response, dark current background, and sample transmission and then azimuthally integrated to generate 1D scattering patterns. Under these conditions, the sample coherent normalized scattering intensity IN(q) is [drawing 2] 1 where Ip(q) is the normalized intensity scattered by the sample, Is(q) is the normalized intensity scattered by the solvent in our case HPLC grade water, Cp is the peptide concentration in g cm^–3, and Ib is the background scattering originating mainly from the incoherent scattering of the peptides. Is(q) was obtained by measuring the scattering of the solvent, HPLC grade water, and Ib was estimated using the Porod law that gives the scattered intensity of a two-phase system at high q values: [drawing 3] 2 where Kp is the Porod constant. Ib was estimated by fitting the last 40 data points of the 1D scattering patter using a Porod plot [q^4I(q) vs q^4].[33]−[36]
The formation of fibers and fibrillar entangle networks was confirmed by SAXS and TEM. […] From a Guinier representation, ln qI(q) vs q^2, the fibers cross-section radius of gyration, Rσ, can be obtained. Indeed, it has been shown that for thin rod-like structures for qRσ < 1 the scattering intensity can be written as[34],[39] [drawing 4] 3
From the fitting of the linear region, Rσ values of 1.2 ± 0.2 nm for K(FEFK)2 and 1.4 ± 0.2 nm for E(FKFE)2 were obtained. Assuming a cylindrical geometry, Rσ can be related to the fiber diameter, df, through: [drawing 5] 4

TEM fiber width analysis = format: physicochemical; conditions: log-normal fit, 700 fibers, cut-off 20 nm, hydrogels 12 mg mL^–1 peptide (0.8 mg mL^–1 polymer where loaded), pH 7, diluted 20-fold
Method: Hydrogels were prepared as described earlier and diluted 20-fold using HPLC-grade water. The samples were vigorously mixed with a vortex to separate as much as possible the fibers. A carbon-coated copper grid (400 mesh grid Electron Microscopy Sciences, Hatfield, Pennsylvania, USA) was glow discharged and charged negatively. The carbon copper grid was then placed sequentially on a 10 μL sample droplet for 60 s, a 10 μL droplet of HPLC grade water for 10 s three times, a 10 μL droplet of 5% uranyl acetate solution for 30 s, and finally, on a 10 μL droplet of HPLC grade water for 10 s. After each step, excess liquid was drained off using lint-free tissue (90 mm Whatman 1). The grid was then left to air-dry for 2–5 min. TEM images were taken using an FEI Tecnai12 BioTwin transmission electron microscope running at 100 kV and equipped with a Gatan Orius SC1000A CCD camera. Fiber width analysis was performed by measuring randomly the widths of 700 fiber (cut-off size 20 nm) using ImageJ software across at least three TEM images for each sample.

[6] = Hydrogel behaviour in cell culture media without cells; format: physicochemical; conditions: after 14 days in cell culture media (DMEM, αMEM), no cells, 37 °C
Method: Rheological measurements were performed using a Discovery Hybrid 2 (DHR-2) rheometer from TA Instruments (New Castle, Delaware, USA) using a 20 mm parallel plate geometry and a 500 μm gap. Samples were prepared as described earlier. Hydrogels (200 μL) were pipetted onto the rheometer’s static bottom plate and the rheometer top plate lowered to the desired gap size. For hydrogel in cell culture inserts and conditioned with cell culture media (see below), the bottom membranes of the insets were removed, and the hydrogels deposited on the rheometer’s static bottom plate. Samples were covered with a solvent trap to avoid evaporation and left to equilibrate at 37 °C for 180 s before the experiments. Strain sweep experiments were performed at 1 Hz in the 0.01–100% strain range. The shear-thinning and recovery (i.e., injectability) experiments were performed by applying sequentially a low shear strain (0.2%) for 5 min followed by a high shear strain (1000%) for 1 min and again a low shear strain (0.2%) for 5 min.
Hydrogel samples were removed from the fridge (4 °C) and prewarmed to 37 °C. Cells were encapsulated into the hydrogel by gentle pipetting to ensure an evenly mixed sample, at a final density of 1 × 10^6 cells mL^–1. 100 μL of cell-laden hydrogel was then dispensed into ThinCert inserts (Greiner Bio-One) in 24-well plates and cell culture medium (1 mL) was added into each well/insert. […]

| Sequence | pKa-like transition assigned to deprotonation of lysine side chain amino groups, pH from which upward [1] [pH] | first pKa-like transition (deprotonation of glutamic acid side groups), pH [1] [pH] | cell viability (live/dead) [2] | swelling ([3]; day 10, 37 °C) | cell proliferation (cell number, PicoGreen) (3T3 mouse fibroblast) | change in cell number (PicoGreen) [4] | fibers cross-section radius of gyration, Rσ [5] [nm] | estimated fiber diameter, df [5] [nm] | fiber widths distribution maximum (TEM fiber width analysis) [nm] | hydrogel integrity when extracted from cell culture inserts [6] | hydrogel stability in MSC culture ([2]; after 14 days of 3D culture with MSCs) | shift of terminal NH3+ apparent pKa vs theoretical [unit] | hydrogel stability in excess water ([3]; 10 days, 37 °C) |
| --- | --- | --- | --- | --- | --- | --- | --- | --- | --- | --- | --- | --- | --- |
| KFEFKFEFK [K(FEFK)2] | ≥ 9.5 | ≤ 5 | good | ~30 % (v/v) | Significant proliferation | no significant change in cell number | 1.2 ± 0.2 | 3.3 ± 0.5 | 4.9 ± 1.0 | keep their integrity and shape | – | – | – |
| EFKFEFKFE [E(FKFE)2] | ≥ 10.0 | ≤ 4.5 | higher | – | – | decrease in cell number | 1.4 ± 0.2 | 4.0 ± 0.5 | 4.5 ± 0.9 | some loss of integrity and loss of shape | dissolve | 1 | unstable and after 10 days dissolved |
